In US9351998B2, “Methods of nourishing animals” (MariCal, Inc., priority 2008, dated 2016):

Columns and labels:
[1] = system: chick CaSR; experiment: Plasma calcium in chicks after single oral gavage of CaSR modulator; assay type: in vivo; conditions: various doses, 2 week old and newly hatched chicks, various intervals of time
Source text: Male chicks (either newly hatched or 2 weeks of age) were gavaged with a single application of various doses of the specific CaSR modulator (MC 0100), a specific pharmacological modulator of CaSRs, to increase the apparent sensitivity of the CaSR to agonists such as calcium. An increase in the apparent sensitivity of the chick CaSR to extracellular calcium is expected to result in the “resetting” of the normal range of calcium within the chick to a lower level of plasma calcium since the functioning CaSR are all shifted leftward (more sensitive) on the dose response curve of CaSR for calcium.

[2] = system: avian CaSR; experiment: FURA2 ratio imaging fluorimetry of HEK cells stably expressing avian (chicken) CaSR; assay type: cell-based
Source text: All methods and equipment utilized to perform experiments on HEK cells have been reported previously (Gama, L. and Breitwieser, G. E. 1998. A carboxyl-terminal domain controls the cooperativity for extracellular Ca2+ activation of the human calcium sensing receptor. A study with receptor-green fluorescent protein fusions. J. Biol. Chem. 273, 29712-29718; Bai, M., Quinn, S., Trivedi, S., Kifor, 0., Pearce, S. H., Pollak, M. R., Krapcho, K., Hebert, S. C. and Brown, E. M. 1996. Expression and characterization of inactivating and activating mutations in the human Ca2+o-sensing receptor. J. Biol. Chem. 271, 19537-19544). Untransfected HEK cells or, alternatively, cells transfected and expressing CaSR protein were cultured in Dulbecco's Modified Eagle Medium containing 10% fetal bovine serum and 1% penicillin-streptomycin in 75 cm^2 flasks until they reached confluence. Media was removed from the flasks and cells were loaded by exposure to Loading Buffer (125 mM NaCl, 4 mM KCl, 1.0 mMCaCl2, 1.0 mM MgCl2, 1 mM NaH2PO4, 20 mM HEPES, 1 gm/liter bovine serum albumin, and 1 gm/l glucose, pH ˜7.4, osmolality ˜285) containing 4.1 micromolar FURA2-AM (Molecular Probes Inc. Eugene, Oreg.) for 2 hr. Cells were then scraped from the surface of the flask using a standard cell scraper (Costar 3010, Corning Inc.). Cells were then pelleted from the suspension by low speed centrifugation to remove loading buffer and rinsed twice to remove extracellular FURA2 dye by two sequential suspensions and pelleting steps using low speed centrifugation. Immediately prior to the start of the experiment, cells were resuspended in various experimental buffers for analyses as described below. The Standard Experimental Buffer used for many studies was composed of: 125 mM NaCl, 4 mM KCl, 0.5 mMCaCl2, 0.5 mM MgCl2, 20 mM HEPES, 1 g/l glucose, pH ˜7.4, osmolality ˜285. All other buffers were variations on this basic composition where specific components within the Standard Experimental Buffer were varied while the remaining components were held constant.
Cell suspensions consisting of a total volume of 3 ml were analyzed in a PTI fluorimeter (PTI Model 814 Photomultiplier Detection System equipped with SC-500 Shutter Controller and PTI Driver and Analysis Software) within approximately 20 min after exposure to experimental buffers. Data was acquired using standard ratio image analysis as described previously using a data acquisition rate of 1.3 sec. for 500 or 1000 second intervals.
In selected experiments, the detergent Triton X-100 was added in order to lyse the cells and quantify differences in FURA2 ratio fluorescence. Triton X-100 was added to the cells to obtain a maximal fluorescence signal from the FURA2 for purposes of quantification.
The ability of the CaSR modulator MC0100 to potentiate the response of avian and mammalian CaSRs to the chelated mineral amino acid complex, ZnPro, was tested. For avian CaSR experiments, three individual aliquots from a single pool of HEK cells that stably express the recombinant avian CaSR protein were used for ratio imaging fluorimetry assays of CaSR activation generally as described in Example 6 herein. […] In all aliquots, the detergent Triton X-100 was added as the last addition to lyse the cells (FIG. 29A).
From a single pool of HEK cells stably expressing the avian CaSR, aliquots of cells were removed and analyzed using ratio imaging fluorimetry generally as described in Example 6 herein. After a standard addition of Ca++ to a final concentration of 2.5 mM, either 0.0025%, 0.025% or 0.25% Zinc Proteinate was added followed by a second addition of Ca++ to a final concentration of 7.5 mM. Subsequently, an aliquot of the detergent Triton X-100 was added to lyse the cells. […] The magnitude of the subsequent CaSR response to Ca++ was reduced via increasing Zn Proteinate stimulation.
Fluorimetry analysis was performed on HEK cells expressing the recombinant chicken CaSR protein generally as described in Example 6 herein.

[3] = system: chicken CaSR; experiment: CaSR dependent ERK 1/2 phosphorylation (Western blot) in HEK cells transfected with chicken CaSR; assay type: cell-based; conditions: 1 micromolar MC 0100
Procedure: HEK cells transfected with the chicken CaSR were cultured under standard conditions (DMEM with 10% FCS). Confluent flasks were serum-starved overnight in DMEM supplemented with 0.2% BSA and pre-incubated for 60 min at 37° C. in the following medium: 125 mM NaCl, 4 mM KCl, 20 mM Hepes, 0.1% glucose, 0.8 mM NaH2PO4, 1 mM MgCl2, 0.1% BSA, 0.5 mM CaCl2, pH 7.45. The cells were then incubated in the same medium without BSA in the presence of different mineral chelates at different concentrations (see below) for 15 min at 37° C. At the end of the incubation treatment media was removed and cells were washed with PBS and than lysed in 250 microliter of M-PER lysis buffer (Pierce Chemical Company, Rockford, Ill.) containing 10 ul/ml of protease inhibitors (Pierce Chemical Company, Rockford, Ill.). Cell lysates were centrifuged for 10 min at 4° C. at 14,000×g. The protein content in the supernatants was analyzed using the BCA Protein Assay system from Pierce Chemical Company, Rockford, Ill. Equal amounts of protein (20 ug) were combined with 4× loading buffer and […] DTT, heated to 95° C., separated by SDS gel electrophoresis and electrotransferred to PVD membranes. The membranes were incubated in 1% BSA in TBS-T (TRIS-buffered saline containing Tween 20 at 0.1%) overnight. After 4 washes in TBS-T the membranes were incubated with primary antibody (anti phosphoERK at 1:400 dilution; this antibody recognizes the phosphorylated form of ERK 1/2) for 1.5 hours at room temperatures, washed 4 times and incubated with secondary antibody (anti mouse at 1:50,000 dilution). After 4 washes in TBS-T the membranes were developed using the ECL Western Blotting system.
The experiments described in FIGS. 34 A and B used the following metal chelate treatments: ZnProteinate, CuProteinate and MnProteinate (Balchem Corporation, New Hampton, N.Y.) at the following concentrations: 0.025% and 2.5%, or at a concentration of 0.025% with 1 micromolar MC 0100 (a calcimimetic); or various concentrations of bacitracin Zn.

[4] = Nonstressed pen trial, serum parameters of broiler chickens given feed additives; assay type: in vivo, broiler chickens (Cobb); conditions: feed additive, MC0100 10 mg/kg or Mintrex Zn 250 mg/kg, Day 14
Source text: Male Cobb strain broiler chickens were reared in standard minipens and fed standard feed.

COc1cccc([C@@H](C)NCCCc2ccccc2)c1 [MC0100]
plasma calcium [1]: dose dependent decrease
effect of prior modulator on CaSR response to 0.25% Mintrex Zn ([2]; 1 micromolar MC0100, buffer 1.5 mM Ca2+): potentiated the response
effect of modulator on CaSR response to ZnPro ([2]; MC0100 added before ZnPro): potentiates the response
CaSR response to the modulator itself ([2]; MC0100 at final 1 micromolar, buffer 1.5 mM Ca2+): yielded a response
CaSR response to stepwise additions ([2]; after addition of 2.5 mM Ca++ (FIG. 36)): increased responses
effect on ERK1/2 phosphorylation response to 0.025% Cu Proteinate [3]: net reduction
effect on ERK1/2 phosphorylation response to 0.025% Mn Proteinate [3]: strongly enhanced
mean serum calcium concentration compared to Control [4]: significant reductions
